# Where two headings read alike, the source gives them in different places. No end group written: not given here.
# How the values were obtained:
# [1] = tested on: Staphylococcus epidermidis (PCM 2118); format: cell-based
# Description: (§1) Escherichia coli (PCM 2057), Staphylococcus aureus (PCM 2054), Staphylococcus epidermidis (PCM 2118), Pseudomonas aeruginosa (PCM 499) were obtained from Polish Collection of Microorganisms. Fungi strains Candida albicans (CCM 8186), Candida glabrata (CCM 8270), Candida parapsilosis (CCM 8260), Candida krusei (CCM 8271), Candida tropicalis (CCM 8264) were acquired from Czech Collection of Microorganisms.
# (§2) Luria-Bertani broth (LB) and Sabouraud Dextrose broth (SB) (Biocorp, Poland) were used for cultivation of bacteria and fungi strains, respectively. Antimicrobial activity of peptides was analyzed through determination of MIC (minimal inhibitory concentration) parameter according to the standard microdilution technique performed on 96-well plates. Mueller-Hinton broth (MHB) was used as the working medium for all bacterial strains, while in case of fungi it was additionally supplemented with 2% glucose.
# (§3) Briefly, inoculum was prepared from freshly grown cultures of microorganisms being at their exponential phase of growth. Each well of 96-well plates containing 100 μL of serially diluted peptides in PBS (phosphate buffer saline) at concentration ranging from 2 to 250 μg/mL were inoculated with 100 μL of approximately 10^5 CFU/mL of bacterial suspension or about 2.5 x 10^3 CFU/mL of fungi suspended in a double concentrated Mueller-Hinton broth (supplemented with 2% glucose for Candida spps.). Then plates were incubated overnight at 37°C and absorbance was read at 590 nm after 24 h. Cultures without peptide were treated as positive control, while uninoculated Mueller-Hinton broth was defined as negative control. All measurements were run at least in triplicate.
# (§4) All peptides were screened against the wide range of microorganisms, including Gram-negative, Gram-positive bacteria and fungi from Candida species (Table 2). Broth microdilution method for MIC determination was used as a standard procedure. All assays were performed on liquid Mueller-Hinton broth, which was additionally supplemented with 2% glucose when fungicidal activity towards Candida spps. was analyzed.
# [2] = tested on: Candida krusei (CCM 8271); format: cell-based; conditions: broth microdilution, Mueller-Hinton broth + 2% glucose, about 2.5 x 10^3 CFU/mL, 37°C, 24 h, absorbance 590 nm, at least triplicate
# Description: as §1, §2, §3, §4
# [3] = tested on: Candida parapsilosis (CCM 8260); format: cell-based; conditions: broth microdilution, Mueller-Hinton broth + 2% glucose, about 2.5 x 10^3 CFU/mL, 37°C, 24 h, absorbance 590 nm, at least triplicate
# Description: as §1, §2, §3, §4
# [4] = tested on: Candida albicans (CCM 8186); format: cell-based; conditions: broth microdilution, Mueller-Hinton broth + 2% glucose, about 2.5 x 10^3 CFU/mL, 37°C, 24 h, absorbance 590 nm, peptide 2 to 250 μg/mL, at least triplicate
# Description: as §1, §2, §3, §4
# [5] = tested on: Candida tropicalis (CCM 8264); format: cell-based; conditions: broth microdilution, Mueller-Hinton broth + 2% glucose, about 2.5 x 10^3 CFU/mL, 37°C, 24 h, absorbance 590 nm, at least triplicate
# Description: as §1, §2, §3, §4
# [6] = tested on: Candida glabrata (CCM 8270); format: cell-based; conditions: broth microdilution, Mueller-Hinton broth + 2% glucose, about 2.5 x 10^3 CFU/mL, 37°C, 24 h, absorbance 590 nm, at least triplicate
# Description: as §1, §2, §3, §4
# [7] = tested on: Escherichia coli (PCM 2057); format: cell-based
# Description: as §1, §2, §3, §4
# [8] = tested on: Staphylococcus aureus (PCM 2054); format: cell-based
# Description: as §1, §2, §3, §4
# [9] = tested on: Pseudomonas aeruginosa (PCM 499); format: cell-based
# Description: as §1, §2, §3, §4
# [10] = Circular dichroism, alpha-helical content; format: physicochemical; conditions: CD, mean residue ellipticity at 222 nm (Eq 1), peptide 0.4 mg/ml in 30 mM SDS, room temperature
# Procedure: Circullar dichroism spectra of analyzed compounds were recorded on a Jasco J-815 spectropolarimeter using a quartz cell of 1 mm path length between 195–260 nm at room temperature. Peptides at concentration of 0.4 mg/ml were dissolved in water or 30 mM SDS solution. SDS micelle system was used as the simplified model of negatively charged lipid membrane. On the basis of the obtained results the alpha-helical content was determined from the mean residue ellipticities at 222 nm according to Eq 1: %Helix=([θ]obs/([θ]helixx(1−2.57/l))x100, (1) where [θ] obs is the experimentally observed mean-residue ellipticity at 222 nm, [θ]helix is the theoretical ellipticity of peptide of infinite length with a 100% helix population, taken as -39 500 deg·cm^2/dmol, and l is the number of peptide bonds.
# Circular dichroism method was applied to obtain a basic information about the secondary structure of the synthesized compounds (with the exception of CAR, CAR3, DAL, CTEN2) in two chemical environments, water and 30 mM SDS. As expected, all the tested compounds in water adopted a random-coil structure, while in the presence of 30 mM SDS most of them formed α-helices with characteristic negative minima around 208 and 220 nm. […] The examples of CD spectra for selected peptides could be seen in supporting information (Figure A in S1 File). On the basis of the experimentally obtained values of the mean residue ellipticities of peptides at 222 nm their alpha-helical content was calculated according to the Eq 1 (Table 1).
# [11] = tested on: B. subtilis; format: cell-based; conditions: 24 h
# Procedure: as §2, §3, §4
# [12] = tested on: B. cereus; format: cell-based; conditions: 24 h
# Procedure: as §2, §3, §4
# [13] = tested on: immortalized human HaCaT keratinocytes; assay: Cell proliferation assay (MTT); format: cell-based; conditions: 72 h, serum-free DMEM; for Effect on HaCaT cell viability/proliferation (MTT), in words: whole range 1–50 μg/mL, vs. control without peptide, triplicate; for Effect on HaCaT proliferation (MTT), in words: lower concentrations, 1 or 10 μg/mL
# Procedure: In our study two kind of cells were used: immortalized human HaCaT keratinocytes (DKFZ Heidelberg, Germany) and primary dermal fibroblasts obtained from 3 healthy donors. Both types of the used cell lines were grown in Dulbecco's modified Eagle's medium (DMEM) (Sigma–Aldrich, Germany), that contained […] of glucose, […] of L-glutamine, sodium pyruvate and sodium bicarbonate. Additionally, medium was supplemented with 10% of FCS (fetal calf serum, Sigma-Aldrich, Germany), 100 U/mL of penicillin and 100 μg/mL streptomycin (Sigma-Aldrich, Germany). The cells were grown in culture dishes (BD, USA) under standard conditions in a humidified atmosphere with 5% CO2 at 37°C and medium was changed every 2 days.
# The fibroblasts and keratinocytes were seeded at density of 4500 and 6000 cells per well, respectively, into 96-well plates suspended in a medium supplemented with 10% of FCS. After 24 h the media were exchanged with serum- and antibiotic- free DMEM and tested peptides dissolved in PBS were added yielding final concentration ranging from 1 to 50 μg/mL. Cells were incubated for the next 24 hours, when the medium was exchanged again and fresh portion of peptides (used at the same concentrations as previously) was added. Incubation was continued for the next 48 hours (the overall time of cell exposition to peptide was 72 h). At the end of the experiment cells were treated with 20 μL of MTT (5 mg/mL in PBS). After 3 h at 37°C under 5% CO2 medium was discarded and replaced by 6mM HCl in isopropanol. After 15 min when the purple crystals of formazan were fully solubilized, absorbance was read at 570 nm with a plate reader. The optical density reflects the level of cell viability as MTT is converted in purple formazan product only in the presence of viable mitochondria of the living cells.
# Fig 1 Pro-proliferative activity of the tested peptides towards human keratinocytes (A) and fibroblasts (B). Cells were incubated for 72 hours in serum-free DMEM medium in the presence of peptides applied at concentrations of 1,10, 25 and 50 μg/mL, respectively. The data represents results of MTT assay expressed as the percentage of the cell viability in comparison to their control sample (cells incubated in serum-free DMEM without tested peptides), additional positive control corresponds to the cells incubated in the presence of 10% FCS. All experiments were performed independently in triplicate. *P < 0.05, **P < 0.01, ***P < 0.001 vs. control.
# In order to evaluate a long-term effect of peptides, experiments were carried out for 72 hours. Before addition of the tested compounds, the cell medium was exchanged for the fresh one not containing any serum or antibiotic.
# [14] = broth microdilution, Mueller-Hinton broth, approximately 10^5 CFU/mL, 37°C, 24 h, absorbance 590 nm, at least triplicate
# [15] = broth microdilution, Mueller-Hinton broth, approximately 10^5 CFU/mL, 37°C, absorbance 590 nm, at least triplicate
Substance,"MIC S. epidermidis [1, 14] [µg/mL]",MIC C.krusei [2] [µg/mL],MIC C. parapsilosis [3] [µg/mL],MIC C. albicans [4] [µg/mL],MIC C.tropicalis [5] [µg/mL],MIC C.glabrata [6] [µg/mL],"MIC E.coli [7, 14] [µg/mL]","MIC S.aureus [8, 14] [µg/mL]","MIC P. aeruginosa [9, 14] [µg/mL]",α-helicity [10] [%],"MIC B. subtilis [11, 15] [µg/mL]","MIC B. cereus [12, 15] [µg/mL]","Effect on HaCaT cell viability/proliferation (MTT), in words [13]","MIC S. epidermidis ([1]; PCM 2118, 24 h) [µg/mL]","MIC E.coli ([7]; PCM 2057, 24 h) [µg/mL]","MIC S.aureus ([8]; PCM 2054, 24 h) [µg/mL]","MIC P. aeruginosa ([9]; PCM 499, 24 h) [µg/mL]",MIC B. subtilis [11] [µg/mL],MIC B. cereus [12] [µg/mL],"Effect on HaCaT proliferation (MTT), in words [13]"
"EGLEPG-PEG-IKKILSKIKKLLK-NH2 [CTEN2-PEG-LK6, conjugate of CTEN2 and LK6 joined by PEG-linker]",7.8,15.6,125,125,7.8,>125,>125,>125,>125,20,7.8,>125,,,,,,,,
"IKKILSKIKKLL-PEG-YAGFLR [DK5-PEG-DAL, conjugate of DK5 and dalargin joined by PEG-linker (8-amino-3,6-dioxaoctanoic acid)]",7.8,7.8,2.0,100,7.8,>125,7.8,>125,>125,20,7.8,>125,negative dose-response relationship,,,,,,,
"IKKILSKIKKLLK-NH2 [LK6, reference compound]",,,,,,,,,,,,,,7.8,>125,100,25,7.8,50,
"KKVVFWVKFK-NH2 [KSLW, reference compound]",,,,,,,,,,,,,,7.8,7.8,25,25,7.8,50,
"YAGFLR [DAL, dalargin, synthetic Leu-enkephalin analogue, reference compound]",,,,,,,,,,,,,non-toxic,,,,,,,
"ΒAHβAHβAH-PEG-IKKILSKIKKLL-NH2 [CAR3-PEG-DK5, conjugate of CAR3 and DK5 joined by PEG-linker]",7.8,7.8,2.0,100,7.8,125,>125,>125,50,27,15.6,>125,,,,,,,,induced cell proliferation
"βAH-PEG-IKKILSKIKKLL-NH2 [CAR-PEG-DK5, conjugate of carnosine and DK5 joined by PEG-linker]",3.9,3.9,31.3,15.6,<2,62.5,100,125,50,41,3.9,100,,,,,,,,induced cell proliferation

# — article PMC4608580, “Synthesis and Evaluation of Biological Activity of Antimicrobial – Pro-Proliferative Peptide Conjugates” (PLoS ONE, 2015)
